Data set [1] is described as follows: Pharmacokinetics in MDA-MB-231 xenograft tumor-bearing mice (LC-MS/MS). Format: in vivo. The source says:
Analytical LC-MS/MS conditions: Compound levels in plasma and tissues for in vivo pharmacokinetic (PK) studies were monitored by LC-MS/MS using an AB Sciex (Framingham, MA) 6500^+ QTRAP® mass spectrometer coupled to a Shimadzu (Columbia, MD) Prominence LC. Analytes were detected with the mass spectrometer in positive MRM (multiple reaction monitoring) mode by following the precursor to fragment ion transition 705.3→592.3. An Agilent C18 XDB column (5 micron, 50×4.6 mm) was used for chromatography for PK studies with the following conditions: Buffer A: dH2O+0.1% formic acid, Buffer B: methanol+0.1% formic acid, 0-1.0 min 5% B, 1.0-2 min gradient to 98% B, 2-3.0 min 98% B, 3.0-3.2 min gradient to 5% B, 3.2-4.5 min 5% B. Tolbutamide (transition 271.2 to 91.2) from Sigma (St. Louis, MO) was used as an internal standard (IS). Pharmacokinetic studies were performed in MDA-MB-231 xenograft tumor-bearing female NOD-SCID mice. ERX-41 was given either orally or intraperitoneally (10 mg/kg single dose). Animals were sacrificed in groups of three, blood was obtained by cardiac puncture at each time point (0, 0.5, 1.5, 3, 6 and 24 hours post dose) using the anticoagulant EDTA and plasma isolated by centrifugation. Tumor and liver were also collected and snap frozen in liquid nitrogen after rinsing with PBS to remove surface adhering blood. Tissues were homogenized in a 3-fold volume (weight by volume) of PBS to generate a homogenate. 100 μl of plasma or tissue homogenate was mixed with 200 μl of methanol containing 0.15% formic acid and 15 ng/mL tolbutamide IS. The samples were vortexed 15 sec, incubated at room temp for 10 min and spun twice at 16,100×g 4° C. in a refrigerated microcentrifuge. The amount of compound present in plasma, tumor and liver was quantified by LC-MS/MS to determine the amount of compound in each matrix. Standard curves were generated using blank plasma (Bioreclamation, Westbury, NY, RRID:SCR_004728) or blank tissue homogenate spiked with known concentrations of test compound and processed as described above. The concentrations of drug in each time-point sample were quantified using Analyst 1.7.1 software (Sciex). A value of 3-fold above the signal obtained from blank plasma or tissue homogenate was designated the limit of detection (LOD). The lower limit of quantitation (LLOQ) was defined as the lowest concentration at which back calculation yielded a concentration within 20% of theoretical and which was above the LOD. The LLOQ for plasma and tumor was 0.1 ng/mL and 1 ng/mL in liver. PK parameters, Cmax, Tmax, Terminal T½ (calculated as Ln(2)/λz), AUClast (area under the concentration time curve to the last measured value determined by linear trapezoidal rule), Cl (clearance measured as Dose/AUCinf), and Vz (volume of distribution based on the terminal phase=Dose/AUCinf*λz) were calculated using the noncompartmental analysis tool of Phoenix WinNonLin version 8.01 (Certara/Pharsight, Sunnyvale, CA, RRID:SCR_003163).

Data set [2] deals with ERα+ breast PDX (WHIM-20). The experiment in a line: ERα+ breast PDX WHIM-20. Format: in vivo, NSG mice. To be noted: 10 mg/kg daily. How it is done: Animal Studies: All animal experiments were performed using UTHSA and UTSW IACUC approved protocols. For cell based xenograft tumor assays, TNBC cells (2×10^5-2×10^6) were mixed with an equal volume of matrigel and implanted in the mammary fat pads of 6-week-old female athymic nude mice as described^33. BALB/c mice were used for D2A1 syngeneic model. Once tumors reached measurable size, mice were divided into control (vehicle) and ERX-41 (10 mg/kg/oral) treatment groups. Mice bearing TNBC PDX tumors were purchased from Jackson laboratory (TM00089; TM00096; TM00098). TNBC PDX line UTPDX0001 establishment was earlier described^38. WHIM-20 ER+PDX model was purchased from Horizon Labs. OCa-PDX-38 was received from UTHSA ObGyn tissue procurement core. When tumors reached ˜750 mm^3 they were dissected into 2 mm^3 pieces and implanted into the mammary fat pads of 6 weeks old female SCID or NSG mice. When the tumor volume reached ˜200 mm^3, mice were randomized for treatment. The mice were monitored daily for adverse toxic effects and tumor volume was measured every 3-4 days using calipers. For establishing ES2 tumors, ES2/GFP/LUC cells were injected i.p. and tumors were measured twice a week using Xenogen in vivo imaging system. […] The mice were monitored daily for adverse toxic effects. […] The sections were scored by two independent evaluators blinded to the patient's clinical status.

The subject of data set [3] is TNBC. As to the kind of experiment: ER stress, cell death and lysosomes in TNBC (discussion, no method). Format: cell-based.
Data set [4] concerns HSPA5, DDIT3, sXBP1 mRNA in TNBC cells. The experiment in a line: RT-qPCR of ER stress / UPR genes, TNBC cells. Format: cell-based, Human. How it is done: Real-time quantitative PCR (RT-qPCR): Total RNA was prepared from breast cancer cells using the RNeasy Mini Kit (Qiagen) according to the manufacturer protocols. Subsequently, total RNAs were reverse transcribed into cDNA using iScript Reverse Transcription Supermix (Bio-rad) and by using SYBR Green on an Illumina Real-Time PCR system.
(In general: Quantitative PCR measures a nucleic acid by following its amplification.)

`CC(C)COc1cc(C(=O)Nc2ccc(C(=O)N[C@H]3CC[C@H](C)CC3)cc2OCC(C)C)ccc1NC(=O)c1ccc([N+](=O)[O-])c(OCCO)c1` [ERX-41]: the “drug level in treated tumor tissues at 24 h” value in data set [1] (10 mg/kg single dose) is reported as “detectable levels of ERX-41 at 24 h”. Besides, the oral bioavailability result in data set [1] (mouse, in vivo, po) is reported as “orally bioavailable”. Also, the “time to detection in liver and kidneys” value in data set [1] (oral administration) is no more than 4 h. For the same compound, in data set [1] (oral or intraperitoneal administration), the “time to detection in subcutaneous MDA-MB-231 xenograft tumors” value is reported as no more than 1.5 h. Moreover, the “time of peak detectable levels in plasma” value in data set [1] (oral, 10 mg/kg single dose) was found to be 4 h. Besides, the “activity against WHIM-20 PDX” value in data set [2] is listed as “has activity against”. In data set [3], the changes in lysosomes entry is “no significant changes in lysosomes”. In data set [4] (1 μM, TNBC cells), the “upregulation of HSPA5, DDIT3, sXBP1 mRNA” value is recorded as 60-80 fold. Besides, the “expression of sXBP1 and DDIT3, parental SUM-159” value in data set [4] (RT-qPCR, parental SUM-159 cells) is “induces expression of UPR genes sXBP1 and DDIT3”.

The record behind these values is patent publication US20250114313A1, “OLIGO-BENZAMIDE ANALOGS AND THEIR USE IN CANCER TREATMENT” (BOARD OF REGENTS, THE UNIVERSITY OF TEXAS SYSTEM, priority 2022, published 2025).
